One molecule from paper PMC6934184, “Selective DNA-PKcs inhibition extends the therapeutic index of localized radiotherapy and chemotherapy” (The Journal of Clinical Investigation, 2019) can be followed below.

For orientation: inhibition means the drop in the measured response relative to a control, in per cent.

This assay concerns the target T1, LYN B (Homo sapiens, UniProt P07948).
T1 construct: purchased Thermo Fisher Scientific (Life Technologies) SelectScreen
As to the kind of experiment: SelectScreen Z'LYTE. In kind it is biochemical. The protocol:
The in vitro kinase selectivity of NU5455 was determined using the SelectScreen Broad Assay Panel (Thermo Fisher Scientific) involving activity and binding assays (Supplemental Table 1). […] Class IA PI3Ks were measured using the p85α subunit.
Kinase [ATP] % Assay Kinase [ATP] % Assay Kinase [ATP] % Assay Kinase [ATP] % Assay […]
CHEK1 (CHK1) Km app 9.3 Z LYN B Km app 3.0 Z TGFBR2 n/a -0.1 L PDGFRA D842V Km app -5.0 Z […]
SGK (SGK1) Km app 8.5 Z MAP4K2 (GCK) Km app 2.7 Z TLK2 n/a -0.3 L STK38 (NDR) n/a -5.9 L
MERTK (cMER) Km app 8.3 Z CDK2/cyclin A Km app 2.7 Z TGFBR1 (ALK5) n/a -0.4 L MATK (HYL) Km app -6.3 Z
FYN Km app 8.3 Z EPHA1 Km app 2.7 Z CLK3 Km app -0.5 Z ABL1 E255K Km app -6.6 Z
TEC n/a 8.1 L CDK2/cyclin E1 n/a 2.7 L MAP3K14 (NIK) n/a -0.5 L STK17A (DRAK1) n/a -6.6 L
KIT V654A n/a 8.1 L TESK2 n/a 2.7 L AKT3 (PKB gamma) Km app -0.5 Z JAK2 JH1 JH2 Km app -6.7 Z
ROS1 Km app 8.0 Z SPHK1 Km app 2.7 A MAP3K9 (MLK1) Km app -0.5 Z PRKACB (PRKAC beta) n/a -6.8 L
FGFR3 K650E Km app 7.9 Z AMPK A2/B1/G1 Km app 2.6 Z IKBKB (IKK beta) Km app -0.6 Z PDGFRA (PDGFR alpha) Km app -6.8 Z
RAF1 (cRAF) Y340D Y341D 100 7.9 Z DYRK3 Km app 2.6 Z CAMK2A (CaMKII alpha) Km app -0.6 Z NEK9 Km app -7.2 Z
PI4KA (PI4K alpha) 10 7.8 A CSNK1D (CK1 delta) Km app 2.6 Z PRKCB1 (PKC beta I) Km app -0.7 Z PDK1 Km app -7.3 Z
HIPK2 Km app 7.8 Z ACVR2A n/a 2.5 L TTK n/a -0.7 L RPS6KB1 (p70S6K) Km app -7.8 Z […]

T1 sequence (P07948 1-491 isoform P07948-2): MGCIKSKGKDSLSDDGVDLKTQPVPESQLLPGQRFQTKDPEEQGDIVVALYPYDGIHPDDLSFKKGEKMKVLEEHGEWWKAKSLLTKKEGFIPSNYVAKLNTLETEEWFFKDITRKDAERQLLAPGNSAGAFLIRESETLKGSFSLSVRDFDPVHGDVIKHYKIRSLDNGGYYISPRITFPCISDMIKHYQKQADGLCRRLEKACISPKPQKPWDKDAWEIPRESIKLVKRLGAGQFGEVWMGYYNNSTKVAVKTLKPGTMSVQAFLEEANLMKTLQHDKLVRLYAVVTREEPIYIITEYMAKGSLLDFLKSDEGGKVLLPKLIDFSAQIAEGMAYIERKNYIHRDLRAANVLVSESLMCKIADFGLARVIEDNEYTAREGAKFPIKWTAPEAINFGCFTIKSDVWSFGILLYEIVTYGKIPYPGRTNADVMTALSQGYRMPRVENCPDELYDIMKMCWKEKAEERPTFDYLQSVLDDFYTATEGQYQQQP

Regarding `CN(C(=O)CN1CCOCC1)c1ccc2sc3c(-c4cccc5c(=O)cc(N6CC7CCC(C6)O7)oc45)cccc3c2c1` [NU5455], the inhibition at 1 µM was found to be 3%.
